Reference: patent publication US8623879B2, “1-heterocyclyl-1,5-dihydro-pyrazolo[3,4-D] pyrimidin-4-one derivates and their use as PDE9A modulators” (Boehringer Ingelheim International GmbH, priority 2008, dated 2014)

Assays:
[1] = target: human PDE9A (Homo sapiens, UniProt O76083); details: concentrations of up to 100 micromolar; cited from earlier work
[2] = target: T1, Murine PDE9A (Mus musculus, UniProt O70628); details: concentrations below 200 micromolar; cited from earlier work
T1 sequence (O70628 1-534): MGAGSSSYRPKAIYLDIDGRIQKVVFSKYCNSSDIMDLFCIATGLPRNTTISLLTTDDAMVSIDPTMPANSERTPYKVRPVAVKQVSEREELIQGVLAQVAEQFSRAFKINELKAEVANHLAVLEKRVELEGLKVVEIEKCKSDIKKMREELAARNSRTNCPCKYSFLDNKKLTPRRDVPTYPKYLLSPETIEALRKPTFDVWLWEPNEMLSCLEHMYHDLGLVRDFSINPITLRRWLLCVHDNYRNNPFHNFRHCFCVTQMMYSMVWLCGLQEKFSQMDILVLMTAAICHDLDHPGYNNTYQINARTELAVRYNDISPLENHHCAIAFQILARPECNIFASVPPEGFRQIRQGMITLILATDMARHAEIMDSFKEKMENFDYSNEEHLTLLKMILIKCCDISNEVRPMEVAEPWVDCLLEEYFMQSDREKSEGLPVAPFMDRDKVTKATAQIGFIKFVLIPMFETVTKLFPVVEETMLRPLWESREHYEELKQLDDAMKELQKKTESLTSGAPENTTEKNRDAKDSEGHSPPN

[3] = target: T2, human PDE9A2 (Homo sapiens, UniProt O76083); experiment: PDE9A2 enzymatic activity assay (scintillation proximity assay, SPA); format: biochemical; details: for inhibition at 10 µM: read-out: % inhibition of PDE9A2 (at 10 micromolar concentration), 10 micromolar concentration; for inhibition at 10 µM / % inhibition of PDE9A2 (at 10 micromolar concentration): values above 100% adjusted to 100%; for IC50: reported only as range 1-100 or 101-1200 nanomolar, specific value lies within range, read-out: IC50 within range [nanomolar (nM)]
T2 construct: made in house; host or cells: Sf9 insect cells (infected); crude lysate used as enzyme source
T2 sequence (O76083 1-533 isoform O76083-2): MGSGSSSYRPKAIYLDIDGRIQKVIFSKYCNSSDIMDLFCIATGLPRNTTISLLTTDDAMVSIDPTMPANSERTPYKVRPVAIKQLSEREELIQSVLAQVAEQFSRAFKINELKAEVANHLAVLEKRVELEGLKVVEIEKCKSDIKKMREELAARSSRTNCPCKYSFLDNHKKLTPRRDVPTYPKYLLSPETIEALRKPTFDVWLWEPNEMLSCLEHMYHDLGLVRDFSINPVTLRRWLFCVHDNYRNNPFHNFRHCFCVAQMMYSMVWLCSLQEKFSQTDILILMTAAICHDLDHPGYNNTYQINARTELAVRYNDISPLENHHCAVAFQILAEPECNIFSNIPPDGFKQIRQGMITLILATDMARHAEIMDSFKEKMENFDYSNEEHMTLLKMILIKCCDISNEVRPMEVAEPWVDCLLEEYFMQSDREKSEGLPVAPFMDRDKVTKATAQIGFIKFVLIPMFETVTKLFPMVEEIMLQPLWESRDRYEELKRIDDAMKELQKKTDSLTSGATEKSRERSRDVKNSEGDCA

human PDE9A, sequence (O76083 whole entry): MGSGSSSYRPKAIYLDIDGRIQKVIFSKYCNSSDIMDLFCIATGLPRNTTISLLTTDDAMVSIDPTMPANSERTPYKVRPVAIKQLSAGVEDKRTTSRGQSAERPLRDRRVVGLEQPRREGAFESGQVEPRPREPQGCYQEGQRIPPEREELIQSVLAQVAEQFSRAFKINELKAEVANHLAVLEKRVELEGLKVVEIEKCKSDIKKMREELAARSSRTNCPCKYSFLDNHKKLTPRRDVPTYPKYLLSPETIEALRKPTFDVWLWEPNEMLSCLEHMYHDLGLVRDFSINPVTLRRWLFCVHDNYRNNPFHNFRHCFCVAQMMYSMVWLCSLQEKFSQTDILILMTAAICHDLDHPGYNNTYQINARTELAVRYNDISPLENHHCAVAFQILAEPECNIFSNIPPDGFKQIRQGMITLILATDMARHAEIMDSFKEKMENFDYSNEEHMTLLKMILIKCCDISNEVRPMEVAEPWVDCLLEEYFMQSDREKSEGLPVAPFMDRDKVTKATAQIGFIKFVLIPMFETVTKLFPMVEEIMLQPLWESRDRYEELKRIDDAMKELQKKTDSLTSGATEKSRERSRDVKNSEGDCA

Row | Structure (SMILES) | inhibition at 10 µM [3] | IC50 [3] | % inhibition of PDE9A2 (at 10 micromolar concentration) [3] | inhibition on the isolated enzyme [1] | inhibition of murine PDE9A [2]
1 | CC(=O)Nc1ccc(-c2c[nH]c(=O)cn2)cc1 [SKF94120] |  |  |  | no inhibition | 
2 | CC(C)Cn1c(=O)n(C)c(=O)c2[nH]cnc21 [IBMX] |  |  |  | no inhibition | not inhibited
3 | OCCN(CCO)c1nc(N2CCCCC2)c2nc(N(CCO)CCO)nc(N3CCCCC3)c2n1 [dipyridamole] |  |  |  | no inhibition | 
4 | COc1ccc(C2CNC(=O)C2)cc1OC1CCCC1 (stereo not shown) [rolipram] |  |  |  | no inhibition | 
5 | CC(C)(C)OC(=O)N1CCCC(n2ncc3c(=O)[nH]c(Cc4ccccc4OC(F)(F)F)nc32)C1 (racemic) [Example 19] | 99% | 1 to 100 nM |  |  | 
6 | O=c1[nH]c(Cc2ccc(F)cc2)nc2c1cnn2C1CCOC1 (racemic) [Example 79] | 99% | 1 to 100 nM |  |  | 
7 | O=c1[nH]c(CC2CCCC2)nc2c1cnn2C1CCNCC1 [Example 195] | 88% | 101 to 1200 nM |  |  | 
8 | Cc1cccnc1Cc1nc2c(cnn2C2CCCOC2)c(=O)[nH]1 (racemic) [Example 100] | 93% | 101 to 1200 nM |  |  | 
9 | O=c1[nH]c(Cc2cccc(C(F)(F)F)c2)nc2c1cnn2C1CCCOC1 (racemic) [Example 129] | 99% | 1 to 100 nM |  |  | 
10 | CCOC(=O)C1=C[C@]2(CC)CCCN3CCc4c(n1c1ccccc41)[C@@H]32 [vinpocetine] |  |  |  | no inhibition | 
11 | CC(C)Cc1nc2c(cnn2C2CCOCC2C)c(=O)[nH]1 (racemic) [Example 132-8] |  | 101 to 1200 nM | 94% |  | 
12 | CN(C)C(=O)N1CCCC(n2ncc3c(=O)[nH]c(CC4CCCC4)nc32)C1 (racemic) [Example 160] | 96% | 1 to 100 nM |  |  | 
13 | CC(C)(C)OC(=O)N1CCCC(n2ncc3c(=O)[nH]c(Cc4cccc(C(F)(F)F)c4)nc32)C1 (racemic) [Example 22] | 98% | 1 to 100 nM |  |  | 
14 | O=c1[nH]c(CC2CCCCC2)nc2c1cnn2C1CCOC1 (racemic) [Example 75] | 98% | 1 to 100 nM |  |  | 
15 | O=c1[nH]c(CC2CCCO2)nc2c1cnn2C1CCOCC1 (racemic) [Example 42] | 92% | 101 to 1200 nM |  |  | 
16 | O=c1[nH]c(CC2CC2)nc2c1cnn2C1CCS(=O)(=O)CC1 [Example 237] | 89% | 101 to 1200 nM |  |  | 
17 | N#Cc1ccccc1Cc1nc2c(cnn2C2CCCOC2)c(=O)[nH]1 (racemic) [Example 126] | 98% | 1 to 100 nM |  |  | 

Row | Structure (SMILES) | inhibition at 10 µM [3] | IC50 [3] | % inhibition of PDE9A2 (at 10 micromolar concentration) [3] | inhibition on the isolated enzyme [1] | inhibition of murine PDE9A [2]
18 | CCC(C)Cc1nc2c(cnn2C2CCOC2)c(=O)[nH]1 (mixture of isomers) [Example 84] | 97% | 1 to 100 nM |  |  | 
19 | CC(C)Cc1nc2c(cnn2C2CCCOC2)c(=O)[nH]1 (racemic) [Example 92] | 98% | 1 to 100 nM |  |  | 
20 | CC(=O)N1CCC(n2ncc3c(=O)[nH]c(CC4CCCC4)nc32)C1 (racemic) [Example 165] | 99% | 101 to 1200 nM |  |  | 
21 | CC1CC(n2ncc3c(=O)[nH]c(Cc4ccccc4C(F)(F)F)nc32)CCO1 (racemic) [Example 116] |  | 101 to 1200 nM | 93% |  | 
22 | O=c1[nH]c(CC2CCC2)nc2c1cnn2C1CCOC1 (single isomer, unassigned) [Example 132-9] |  | 101 to 1200 nM | 95% |  | 
23 | O=c1[nH]c(Cc2ccccc2F)nc2c1cnn2C1CCCNC1 (racemic) [Example 204] | 87% | 101 to 1200 nM |  |  | 
24 | O=c1[nH]c(Cc2ccccc2C(F)(F)F)nc2c1cnn2C1CCOC1 (racemic) [Example 86] | 95% | 101 to 1200 nM |  |  | 
25 | COC(=O)N1CCCC(n2ncc3c(=O)[nH]c(Cc4ccccc4OC(F)(F)F)nc32)C1 (racemic) [Example 156] | 99% | 1 to 100 nM |  |  | 
26 | CC(C)Cc1nc2c(cnn2C2CCCCO2)c(=O)[nH]1 (racemic) [Example 146] | 91% | 101 to 1200 nM |  |  | 
27 | CC1COCCC1n1ncc2c(=O)[nH]c(CC3CCCC3)nc21 (racemic) [Example 132-2] | 100% | 1 to 100 nM |  |  | 
28 | O=c1[nH]c(CC2CC2)nc2c1cnn2C1CCOC1 (racemic) [Example 80] | 94% | 1 to 100 nM |  |  | 
29 | CC(C)(C)OC(=O)N1CCCC(n2ncc3c(=O)[nH]c(Cc4ccccn4)nc32)C1 (racemic) [Example 20] | 98% | 1 to 100 nM |  |  | 
30 | CC(=O)N1CCC(n2ncc3c(=O)[nH]c(Cc4ccccc4OC(F)(F)F)nc32)CC1 [Example 153] | 90% | 101 to 1200 nM |  |  | 
31 | O=c1[nH]c(Cc2ccccc2OC(F)(F)F)nc2c1cnn2C1CCOC1 (racemic) [Example 70] | 99% | 1 to 100 nM |  |  | 
32 | N#Cc1cccc(Cc2nc3c(cnn3C3CCCOC3)c(=O)[nH]2)c1 (racemic) [Example 98] | 97% | 1 to 100 nM |  |  | 
33 | O=C(c1ccccc1)N1CCCC(n2ncc3c(=O)[nH]c(CC4CCC4)nc32)C1 (racemic) [Example 181] | 96% | 1 to 100 nM |  |  | 
34 | O=C(c1ccccc1)N1CCCC(n2ncc3c(=O)[nH]c(Cc4ccccc4F)nc32)C1 (racemic) [Example 186] | 97% | 1 to 100 nM |  |  | 

More lines, main results first:

Row | inhibition at 10 µM [3] | IC50 [3] | % inhibition of PDE9A2 (at 10 micromolar concentration) [3] | Structure (SMILES) | inhibition on the isolated enzyme [1] | inhibition of murine PDE9A [2]
35 | 98% | 1 to 100 nM |  | O=c1[nH]c(Cc2ccccc2O)nc2c1cnn2C1CCOCC1 [Example 28] |  | 
36 | 99% | 1 to 100 nM |  | Cc1ccccc1Cc1nc2c(cnn2C2CCOCC2)c(=O)[nH]1 [Example 2] |  | 
37 | 97% | 1 to 100 nM |  | CC(=O)N1CCC(Oc2ccccc2Cc2nc3c(cnn3C3CCOCC3)c(=O)[nH]2)CC1 [Example 68] |  | 
38 | 98% | 1 to 100 nM |  | O=c1[nH]c(CC2CCC2)nc2c1cnn2C1CCOCC1 [Example 43] |  | 
39 | 100% | 1 to 100 nM |  | CCOc1ccccc1Cc1nc2c(cnn2C2CCOCC2)c(=O)[nH]1 [Example 52] |  | 
40 | 100% | 1 to 100 nM |  | COc1ccc(Cc2nc3c(cnn3C3CCOCC3)c(=O)[nH]2)c(Cl)c1 [Example 40-2] |  | 
41 | 98% | 1 to 100 nM |  | O=c1[nH]c(Cc2ccccc2Cl)nc2c1cnn2C1CCOCC1 [Example 4] |  | 
42 | 98% | 101 to 1200 nM |  | CCc1cc(OC)ccc1Cc1nc2c(cnn2C2CCOCC2)c(=O)[nH]1 [Example 235] |  | 
43 | 97% | 1 to 100 nM |  | O=c1[nH]c(Cc2cc(C(F)(F)F)ccn2)nc2c1cnn2C1CCOCC1 [Example 65] |  | 
44 | 99% | 1 to 100 nM |  | CC(C)CCc1nc2c(cnn2C2CCOCC2)c(=O)[nH]1 [Example 3] |  | 
45 | 86% | 101 to 1200 nM |  | Cc1cccnc1Cc1nc2c(cnn2C2CCOC2)c(=O)[nH]1 (racemic) [Example 87] |  | 
46 | 99% | 1 to 100 nM |  | CC[C@H](C)Cc1nc2c(cnn2C2CCOCC2)c(=O)[nH]1 [Example 128] |  | 
47 | 100% | 1 to 100 nM |  | CC(Cc1nc2c(cnn2C2CCOCC2)c(=O)[nH]1)C(F)(F)F (racemic) [Example 46] |  | 
48 | 99% | 1 to 100 nM |  | O=c1[nH]c(Cc2cccc(F)c2)nc2c1cnn2C1CCOCC1 [Example 139] |  | 
49 | 97% | 1 to 100 nM |  | O=c1[nH]c(Cc2cccc(C(F)(F)F)n2)nc2c1cnn2C1CCOCC1 [Example 64] |  | 
